From patent US10519114B2, “Peptidomimetics and methods of using the same” (The Regents of the University of Michigan, priority 2016, dated 2019)

How the values were obtained:
[1] = biological target: T1, rat μ (C6-MOR) opioid receptor (Rattus norvegicus, UniProt P33535); experiment: Radioligand binding assay, [3H]diprenorphine displacement, MOR; conditions: displacement of 0.2 nM [3H]diprenorphine, C6-MOR membranes; mean ± standard error
T1 construct: expressed in transfected cells
Procedure, shortened: (§1)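 Ki values come from logistic fits of competition data, with filter-bound radioactivity counted after displacement of 0.2 nM [3H]diprenorphine. Membranes were from rat receptor-transfected C6 cells (MOR, DOR) or human KOR-expressing CHO cells. Incubation ran 1 h at room temperature in pH 7.4 Tris-HCl.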

[2] = biological target: T2, human κ (CHO-KOR) opioid receptor (Homo sapiens, UniProt P41145); experiment: Radioligand binding assay, [3H]diprenorphine displacement, KOR; conditions: displacement of 0.2 nM [3H]diprenorphine, CHO-KOR membranes; mean ± standard error
T2 construct: expressed in transfected cells
T2 sequence (P41145 whole entry): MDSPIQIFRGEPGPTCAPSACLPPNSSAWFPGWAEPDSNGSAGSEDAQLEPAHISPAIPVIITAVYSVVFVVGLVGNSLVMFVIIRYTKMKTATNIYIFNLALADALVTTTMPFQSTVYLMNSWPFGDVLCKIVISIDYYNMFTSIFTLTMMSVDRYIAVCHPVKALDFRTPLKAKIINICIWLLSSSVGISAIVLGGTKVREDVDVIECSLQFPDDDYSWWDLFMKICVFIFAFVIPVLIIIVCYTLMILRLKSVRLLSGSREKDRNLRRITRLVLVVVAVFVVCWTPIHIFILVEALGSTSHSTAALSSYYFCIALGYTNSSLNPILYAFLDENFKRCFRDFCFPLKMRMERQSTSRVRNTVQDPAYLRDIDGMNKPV
Procedure, shortened: as §1

[3] = biological target: T2, human κ (CHO-KOR) opioid receptor; experiment: Stimulation of [35S]GTPγS binding, KOR; type: biochemical
Procedure, shortened: (§2)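 Peptide-stimulated [35S]GTPγS (0.1 nM) binding, with 30 μM GDP, 5 mM MgCl2 and 100 mM NaCl at pH 7.4, was measured over 1 h at room temperature. Membranes came from rat MOR/DOR C6 or human KOR CHO cells. Filter-retained counts were expressed against 10 μM DAMGO, DPDPE or U69,593 respectively; maxima were fitted nonlinearly.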

[4] = biological target: T3, rat δ (C6-DOR) opioid receptor (Rattus norvegicus, UniProt P33533); experiment: Radioligand binding assay, [3H]diprenorphine displacement, DOR; conditions: displacement of 0.2 nM [3H]diprenorphine, C6-DOR membranes; mean ± standard error
T3 construct: expressed in transfected cells
T3 sequence (P33533 whole entry): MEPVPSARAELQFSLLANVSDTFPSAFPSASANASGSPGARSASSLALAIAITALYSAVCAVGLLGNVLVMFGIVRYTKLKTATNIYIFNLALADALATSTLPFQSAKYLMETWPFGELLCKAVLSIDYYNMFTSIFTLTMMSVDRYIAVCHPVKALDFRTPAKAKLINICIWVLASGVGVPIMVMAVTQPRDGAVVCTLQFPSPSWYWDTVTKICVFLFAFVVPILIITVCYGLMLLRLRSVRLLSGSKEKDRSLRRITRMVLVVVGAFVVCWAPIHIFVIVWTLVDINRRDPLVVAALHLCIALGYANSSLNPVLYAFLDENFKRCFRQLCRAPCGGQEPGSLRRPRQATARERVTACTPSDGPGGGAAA
Procedure, shortened: as §1

C57BL/6 mice = experiment: Antinociception, warm water tail withdrawal assay;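 for Antinociceptive activity: fully efficacious means no withdrawal up to the 20 s cutoff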; type: in vivo; conditions: mouse tail withdrawal; for Antinociceptive activity: 50° C. water bath, cutoff 20 s, ip; for Duration: duration of antinociceptive action, 50° C.
Procedure: In Vivo Pharmacology. Animals. Adult male C57BL/6 mice weighing between 20 and 30 g at 8-16 weeks old were used for the current experiments (obtained from Jackson Laboratories (Bar Harbor, Me.), Harlan (Indianapolis, Ind.), or bred in-house). Mice were group-housed and had free access to food and water at all times. Experiments were conducted in the housing room, which was maintained on a 12 h light/dark cycle (with lights on at 0700). Each mouse was used only once and experiments were conducted between 11 a.m. and 4 p.m. Studies were performed in accordance with the University of Michigan Committee on the Use and Care of Animals and the Guide for the Care and Use of Laboratory Animals (National Research Council, 2011 publication).
Antinociception. The antinociceptive effects of the compounds disclosed herein and morphine can be evaluated in the warm water tail withdrawal assay using a cumulative dosing procedure. To determine tail withdrawal latencies, each mouse was placed briefly into a plastic, cylindrical restrainer and 2-3 cm of the tail tip was placed into a water bath maintained at 50° C. The latency to withdraw the tail was recorded with a maximum cutoff time of 20 s. […] Each animal received an injection of saline (intraperitoneal, ip) and then 30 min later, the baseline withdrawal latencies were recorded and ranged between 3 and 6 s. Following baseline determinations, three increasing doses (1, 2.2, and 6.8 mg/kg) of 1(4R) were given at 30 min intervals to provide final doses of 1, 3.2, and 10 mg/kg. Thirty minutes after each injection, the tail withdrawal latency was measured as described above. To confirm that 1(4R) was acting at opioid receptors, the cumulative dose response was repeated over the doses 3.2, 10, and 32 mg/kg following a 30 min pretreatment with 1 mg/kg naltrexone (ip). To determine the time-course of antinociceptive action the tail-withdrawal test was performed at varying times following administration of morphine (10 mg/kg, ip) or 1(4R) (10 mg/kg, ip).

[5] = biological target: T3, rat δ (C6-DOR) opioid receptor; experiment: Stimulation of [35S]GTPγS binding, DOR; type: biochemical; conditions: for EC50 / EC50 (nm) DOR: [35S]GTPγS binding, C6-DOR membranes, mean ± standard error; for Emax / % stimulation DOR: [35S]GTPγS maximal stimulation compared with 10 μM standard DPDPE
Procedure, shortened: as §2

[6] = biological target: T1, rat μ (C6-MOR) opioid receptor; experiment: Stimulation of [35S]GTPγS binding, MOR; type: biochemical; conditions: for EC50: [35S]GTPγS binding, C6-MOR membranes, mean ± standard error; for Emax: [35S]GTPγS maximal stimulation compared with 10 μM standard DAMGO
Procedure, shortened: as §2

[7] = [35S]GTPγS binding, CHO-KOR membranes, mean ± standard error
[8] = [35S]GTPγS maximal stimulation compared with 10 μM standard U-69,593

T1 sequence (P33535 whole entry): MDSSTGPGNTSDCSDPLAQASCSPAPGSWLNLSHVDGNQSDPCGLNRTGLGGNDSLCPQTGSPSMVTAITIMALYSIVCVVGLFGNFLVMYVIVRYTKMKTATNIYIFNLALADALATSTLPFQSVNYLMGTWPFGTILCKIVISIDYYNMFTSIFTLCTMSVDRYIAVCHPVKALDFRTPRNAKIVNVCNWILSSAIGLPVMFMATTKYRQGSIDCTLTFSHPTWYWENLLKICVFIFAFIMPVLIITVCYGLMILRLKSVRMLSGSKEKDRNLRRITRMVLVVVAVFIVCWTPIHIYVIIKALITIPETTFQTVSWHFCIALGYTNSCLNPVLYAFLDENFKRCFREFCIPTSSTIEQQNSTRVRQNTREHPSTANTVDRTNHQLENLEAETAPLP

| SMILES | Ki [1] [nM] | Ki [2] [nM] | EC50 [3, 7] [nM] | Emax [3, 8] [%] | Ki [4] [nM] | Antinociceptive activity (C57BL/6 mice) | EC50 [5] [nM] | Emax [5] [%] | EC50 [6] [nM] | Emax [6] [%] | EC50 (nm) KOR [3, 7] | % stimulation KOR [3, 8] | Duration (C57BL/6 mice) [min] | EC50 (nm) DOR [5] | % stimulation DOR [5] |
| --- | --- | --- | --- | --- | --- | --- | --- | --- | --- | --- | --- | --- | --- | --- | --- |
| Cc1cc(O)cc(C)c1C[C@H](N)C(=O)N[C@@H]1CCNc2c(-c3ccoc3)cc(Cc3ccccc3)cc21 [Compound 1094] | 0.34 ± 0.08 | 27.9 ± 6.24 | 290 | 29 | 3.49 ± 0.55 | Inactive | 74.9 ± 61.5 | 36.7 ± 5.53 | 9.77 ± 6.34 | 103 ± 5 |  |  |  |  |  |
| CCCCc1cc(Cc2ccccc2)cc2c1NCC[C@H]2NC(=O)[C@@H](N)Cc1c(C)cc(O)cc1C [Compound 1126] | 0.75 ± 0.4 | 34.4 ± 4.7 |  |  | 3.55 ± 0.46 | Fully efficacious | 200 ± 77 | 24.9 ± 4.43 | 17.9 ± 5.83 | 85 ± 2 | dns | dns | 150 |  |  |
| Cc1cc(O)cc(C)c1C[C@H](N)C(=O)N[C@@H]1CCNc2c(C(=O)O)cc(Cc3ccccc3)cc21 [Compound 1130] | 0.6 | 700 |  |  | 2.3 | Inactive |  |  | 4 | 60 | dns | dns |  | dns | dns |
| CCc1cc(Cc2ccccc2)cc2c1NCC[C@H]2NC(=O)[C@@H](N)Cc1c(C)cc(O)cc1C [Compound 1127] | 0.05 | 44 |  |  | 4.6 | Fully efficacious | 23 | 48 | 37 | 75 | dns | dns | 60 |  |  |
| Cc1cc(O)cc(C)c1C[C@H](N)C(=O)N[C@@H]1CCNc2c1cc(Cc1ccccc1)cc2C(C)(C)C [Compound 1057] | 0.91 ± 0.4 | 64.7 ± 17.8 |  |  | 3.78 ± 0.66 | Partially active | 238 ± 39.3 | 57.9 ± 14 | 9.87 ± 3.55 | 83.2 ± 4.6 | dns | dns |  |  |  |
| Cc1cc(O)cc(C)c1C[C@H](N)C(=O)N[C@@H]1CCNc2c(C(=O)NCc3ccccc3)cc(Cc3ccccc3)cc21 [Compound 1104] | 0.36 | 29.4 |  |  | 2.17 | Inactive |  |  | 4.18 | 79 |  |  |  | dns | dns |
| Cc1cc(O)cc(C)c1C[C@H](N)C(=O)N[C@@H]1CCNc2c(CN3CCCCC3)cc(Cc3ccccc3)cc21 [Compound 1097] | 0.07 ± 0.03 | 0.71 |  |  | 2.41 | Inactive |  |  | 2.32 ± 0.21 | 93 ± 1.67 |  |  |  |  |  |
| CCOC(=O)c1cc(Cc2ccccc2)cc2c1NCC[C@H]2NC(=O)[C@@H](N)Cc1c(C)cc(O)cc1C [Compound 1102] | 1.01 ± 0.28 | 48.7 |  |  | 4.2 | Fully efficacious |  |  | 4.91 ± 0.28 | 70.5 ± 2.61 |  |  | 150 | dns | dns |
| Cc1cc(O)cc(C)c1C[C@H](N)C(=O)N[C@@H]1CCNc2c(F)cc(Cc3ccccc3)cc21 [Compound 1090] |  |  |  |  |  | Inactive |  |  |  |  |  |  |  |  |  |
| Cc1cc(O)cc(C)c1C[C@H](N)C(=O)N[C@@H]1CCNc2c(C)cc(Cc3ccccc3)cc21 [Compound 1100] | 2.63 | 18.3 |  |  | 1.09 | Fully efficacious |  |  |  |  |  |  | 90 |  |  |
| Cc1cc(O)cc(C)c1C[C@H](N)C(=O)N[C@@H]1CCNc2c(Cc3ccccc3)cc(Cc3ccccc3)cc21 [Compound 1041] | 0.73 | 13.2 |  |  | 0.86 | Inactive |  |  | 7.25 | 73 |  |  |  | dns | dns |
